From patent US11918662B2, “Heterocyclic compounds and imaging agents for imaging huntingtin protein” (CHDI Foundation, Inc., priority 2020, dated 2024)

Biological target: T1, MBP-HTT(1-89)Q46-His(6×) (“Exon1-Q46”) protein aggregates (Homo sapiens, UniProt P42858, INS38QQQQQQQQQQQQQQQQQQQQQQQQQ)
T1 construct: MBP-HTT(1-89)Q46-His(6×); His(6×) (C); made in house
Assay: Exon1-Q46 Radioligand Binding Assay
Settings: displacement of 0.3 nM [3H3-methyl]-5-((5-methoxypyridin-2-yl)methoxy)-2-(pyrazin-2-yl)benzo[d]oxazole from 1 μM aggregated Exon1-Q46, 60 minutes at 37° C.; read-out: Potency Range (IC50)
Procedure: Exon1-Q46 Radioligand Binding Assay
For experiments 30 μM MBP-Exon1-Q46 was incubated with 150 μg/mL thrombin in assay buffer (150 mM NaCl, 50 mM Tris pH 8.0) and 2 mM CaCl2 for 16 hours at 37° C. Aggregated Exon1-Q46 was pelleted by centrifugation for 5 minutes at 13,000 rpm in a bench top centrifuge and re-dissolved in the same volume of assay buffer. […] For the RBA, Q46 protein aggregates and test compounds were pre-incubated in assay buffer for 20 minutes at room temperature, in 100 μL/well in a 96-well plate (pp, round bottom). Then, ligand was added in 50 μL/well and incubated for 60 minutes at 37° C. Final assay concentrations were […] test compound, 1 μM Exon1-Q46 protein (equivalent monomer concentration) and 0.3 nM ligand [^3H3-methyl]-5-((5-methoxypyridin-2-yl)methoxy)-2-(pyrazin-2-yl)benzo[d]oxazole. Samples were transferred onto GF/B filter plates and washed 2× with 200 μL PBS using a Filtermate Harvester. After drying filter plates for 1 hour at 55° C., the back of the plates were sealed with foil and 30 μL/well scintillation fluid (Packard MicroScint 40) added, incubated for 15 minutes in the dark and counted in a MicroBeta reader. […] IC50 values were determined with a sigmoidal inhibition model with four variables (top, bottom, slope, IC50) in a global fit using the normalized replicate data.

T1 sequence (P42858 with tags, fused parts or gaps with the stated changes limits assumed): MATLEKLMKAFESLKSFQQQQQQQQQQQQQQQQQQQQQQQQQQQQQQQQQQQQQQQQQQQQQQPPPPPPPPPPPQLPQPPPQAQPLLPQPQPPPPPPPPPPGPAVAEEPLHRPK

SMILES | IC50 [nM]
Cc1ccc(NC(=O)CCCn2c(=O)c3cccn3c3cnccc32)cc1 [Example 6-1] | < 100
COc1ccc(NC(=O)CCCn2c(=O)c3cccn3c3cnccc32)cc1 [Example 6-2] | < 100
COc1cccc(NC(=O)CCCn2c(=O)c3cccn3c3cnccc32)c1 [Example 6-3] | < 100
COc1ccc(NC(=O)CCCn2c(=O)c3cccn3c3cnccc32)nc1 [Example 6-4] | < 100
COc1ccnc(NC(=O)CCCn2c(=O)c3cccn3c3cnccc32)c1 [Example 6-5] | < 100
COc1ccc(NC(=O)CCn2c(=O)c3ccc(Cl)n3c3ccc(F)cc32)nc1 [Example 7-1] | < 100
COc1ccc(NC(=O)CCn2c(=O)c3ccnn3c3ccc(F)cc32)nc1 [Example 8-1, 3-{7-Fluoro-4-oxo-4H,5H-pyrazolo[1,5-a]quinoxalin-5-yl}-N-(5-methoxypyridin-2-yl)propanamide] | < 100
O=C(CCn1c(=O)c2ccnn2c2ccc(F)cc21)Nc1ccccc1F [Example 8-2] | < 100
COc1ncccc1NC(=O)CCn1c(=O)c2ccnn2c2ccc(F)cc21 [Example 8-3] | < 100
O=C(CCn1c(=O)c2ccnn2c2ccc(F)cc21)N1CCc2ncccc21 [Example 8-4] | < 100
COc1ccccc1NC(=O)CCn1c(=O)c2ccnn2c2ccc(F)cc21 [Example 8-5] | < 100
O=C(CCn1c(=O)c2ccnn2c2ccc(F)cc21)N1CCc2cnccc21 [Example 8-6] | < 100
O=C(CCn1c(=O)c2ccnn2c2ccc(F)cc21)Nc1ccncc1F [Example 8-7] | < 100
O=C(CCn1c(=O)c2ccnn2c2ccc(F)cc21)N1Cc2cccnc2C1 [Example 8-8] | < 100
Cc1cccc(NC(=O)CCn2c(=O)c3ccnn3c3ccc(F)cc32)n1 [Example 8-9] | < 100
Cc1ccc(NC(=O)CCn2c(=O)c3ccnn3c3ccc(F)cc32)nc1 [Example 8-10] | < 100
Cc1ccnc(NC(=O)CCn2c(=O)c3ccnn3c3ccc(F)cc32)c1 [Example 8-11] | < 100
O=C(CCn1c(=O)c2ccnn2c2ccc(F)cc21)Nc1ccc(F)cn1 [Example 8-12] | < 100

SMILES | IC50 [nM]
O=C(CCn1c(=O)c2ccnn2c2ccc(F)cc21)N1CCc2ccncc21 [Example 8-13] | < 100
COc1ncccc1NC(=O)CCn1c(=O)c2cnn(C)c2c2ccc(F)cc21 [Example 9-1] | < 100
Cn1ncc2c(=O)n(CCC(=O)N3CCc4ccccc43)c3cc(F)ccc3c21 [Example 9-2] | < 100
COc1ccccc1NC(=O)CCn1c(=O)c2cnn(C)c2c2ccc(F)cc21 [Example 9-3] | < 100
Cn1ncc2c(=O)n(CCC(=O)N3Cc4cccnc4C3)c3cc(F)ccc3c21 [Example 9-4] | < 100
Cn1ncc2c(=O)n(CCC(=O)N3CCc4ncccc43)c3cc(F)ccc3c21 [Example 9-5] | < 100
COc1ccncc1NC(=O)CCn1c(=O)c2cnn(C)c2c2ccc(F)cc21 [Example 9-6] | < 100
Cn1ncc2c(=O)n(CCC(=O)Nc3ccncc3F)c3cc(F)ccc3c21 [Example 9-7] | < 100
Cn1ncc2c(=O)n(CCC(=O)N3Cc4ccccc4C3)c3cc(F)ccc3c21 [Example 9-8] | < 100
Cn1ncc2c(=O)n(CCC(=O)N3CCc4ccncc43)c3cc(F)ccc3c21 [Example 9-9] | < 100
Cn1ncc2c(=O)n(CCC(=O)N3CCc4cnccc43)c3cc(F)ccc3c21 [Example 9-10] | < 100
Cn1ncc2c(=O)n(CCC(=O)Nc3ccccc3F)c3cc(F)ccc3c21 [Example 9-11] | < 100
Cn1ncc2c(=O)n(CCC(=O)N3Cc4ccncc4C3)c3cc(F)ccc3c21 [Example 9-12] | < 100
Cn1ncc2c(=O)n(CCC(=O)Nc3cccc(F)c3F)c3cc(F)ccc3c21 [Example 9-13] | < 100
Cn1ncc2c(=O)n(CCC(=O)N3CCc4ccccc4C3)c3cc(F)ccc3c21 [Example 9-14] | < 100
Cn1ncc2c(=O)n(CCC(=O)Nc3cc(Cl)ccc3F)c3cc(F)ccc3c21 [Example 9-15] | < 100
Cn1ncc2c(=O)n(CCC(=O)Nc3ccc(Cl)cc3F)c3cc(F)ccc3c21 [Example 9-16] | < 100
Cn1ncc2c(=O)n(CCC(=O)Nc3ccccc3Cl)c3cc(F)ccc3c21 [Example 9-17] | < 100

More lines, now with the values ahead:

IC50 [nM] | SMILES
< 100 | Cn1ncc2c(=O)n(CCC(=O)Nc3ccc(F)cc3F)c3cc(F)ccc3c21 [Example 9-18, N-(2,4-Difluorophenyl)-3-(7-fluoro-1-methyl-4-oxo-pyrazolo[4,3-c]quinolin-5-yl)propanamide]
< 100 | Cn1ncc2c(=O)n(CCC(=O)Nc3cccc(Cl)c3F)c3cc(F)ccc3c21 [Example 9-19]
< 100 | COc1ccc(NC(=O)CCn2c(=O)c3cnn(C)c3c3ccc(F)cc32)c(F)c1 [Example 9-20]
< 100 | Cn1ncc2c(=O)n(CCC(=O)Nc3cc(F)ccc3F)c3cc(F)ccc3c21 [Example 9-21]
< 100 | Cn1ncc2c(=O)[nH]c3cc(F)ccc3c21 [Example 9-22]
< 100 | COc1ccc(NC(=O)CCn2c(=O)c3cnn(C)c3c3ccc(F)cc32)nc1 [Example 9-23]
< 100 | C[C@@H]1CN(C(=O)CCn2c(=O)c3cnn(C)c3c3ccc(F)cc32)C[C@H]1C [Example 9-24]
< 100 | Cc1cccc(NC(=O)CCn2c(=O)c3cnn(C)c3c3ccc(F)cc32)c1F [Example 9-25]
< 100 | Cc1nn(C)c2c1c(=O)n(CCC(=O)Nc1ccc(F)cc1F)c1cc(F)ccc21 [Example 9-26]
< 100 | Cc1nn(C)c2c1c(=O)n(CCC(=O)Nc1ccccc1F)c1cc(F)ccc21 [Example 9-27]
< 100 | COc1ccc(NC(=O)CCn2c(=O)c3cn(C)nc3c3ccc(F)cc32)nc1 [Example 9-28]
< 100 | Cn1ncc2c(=O)n(CCC(=O)Nc3ccc(F)cc3)c3cc(F)ccc3c21 [Example 9-29]
< 100 | Cn1ncc2c(=O)n(CCC(=O)Nc3cccc(F)c3)c3cc(F)ccc3c21 [Example 9-30]
500 to 10000 | Cn1ncc2c(=O)n(CCC(=O)O)c3cc(F)ccc3c21 [Example 9-31]
< 100 | O=C(CCn1c(=O)c2cccn2c2ccc(F)cc21)Nc1ccc(O)cn1 [Example 10-1, 3-{7-Fluoro-4-oxo-4H,5H-pyrrolo[1,2-a]quinoxalin-5-yl}-N-(5-hydroxypyridin-2-yl)propanamide]
< 100 | COc1ccc(OCCCn2c(=O)c3cccn3c3ccc(F)cc32)nc1 [Example 11-1, 7-Fluoro-5-{3-[(5-methoxypyridin-2-yl)oxy]propyl}-4H,5H-pyrrolo[1,2-a]quinoxalin-4-one]
< 100 | Cc1ccc(C(=O)NCCn2c(=O)c3cccn3c3ccc(F)cc32)cc1 [Example 12-1, N-[2-(7-Fluoro-4-oxo-pyrrolo[1,2-a]quinoxalin-5-yl)ethyl]-4-methyl-benzamide]
< 100 | Cc1ccc(C(=O)NCCCn2c(=O)c3cccn3c3ccc(F)cc32)cc1 [Example 12-2]
< 100 | O=c1c2cccn2c2ccc(F)cc2n1CCN1CCc2ccccc2C1 [Example 13-1, 7-Fluoro-5-[2-(1,2,3,4-tetrahydroisoquinolin-2-yl)ethyl]-4H,5H-pyrrolo[1,2-a]quinoxalin-4-one]
< 100 | O=c1c2cccn2c2ccc(F)cc2n1CCCN1CCc2ccccc2C1 [Example 13-2]
